The numbers were not newly measured in US9987593B2, “Method for producing NOx storage-reduction catalyst” (TOYOTA JIDOSHA KABUSHIKI KAISHA, priority 2016, dated 2018), which cites them from elsewhere.

On to `O=C(O)c1nc(=O)[nH]c(=O)[nH]1` [oteracil potassium, reference compound], for which the “solubility in water (in words)” value is “substantially insoluble in water”.

Consider `[K+].c1ccc([B-](c2ccccc2)(c2ccccc2)c2ccccc2)cc1` [potassium tetraphenylborate], for which the solubility in water is listed as 0.18 mg/100 ml H2O and the “solubility in water (in words)” value is reported as “substantially insoluble in water”.
